Results taken from patent US7977352B2, “Triazolopyridine compounds useful for the treatment of degenerative and inflammatory diseases” (Galapagos NV, priority 2006, dated 2011).

What was measured:
[1] = test system: MMP1 expression by activated synovial fibroblasts (RASFs); assay: MMP assay: MMP1 expression by RASFs triggered with TNF-α (MMP1 ELISA); format: cell-based; conditions: TNF-α trigger 10 ng/mL, semi-quantitative score, read-out: REDUCTION MMP1/TNFa
Summary of the method: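 Primary RA synovial fibroblasts (passage 10–12, 3000 cells/well) were preincubated 90 min with compound in M199/1% FBS (0.2% DMSO), then triggered with TNF-α at 10 ng/mL final or 12.5% complex trigger for 48 h. MMP1 in supernatant was measured by sandwich chemiluminescent ELISA; untriggered and vehicle-triggered wells served as min/max controls.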

[2] = test system: MMP1 expression by activated synovial fibroblasts (RASFs); assay: MMP assay: MMP1 expression by RASFs triggered with 'complex trigger' (supernatant of TNF-α-treated THP-1 cells); format: cell-based; conditions: 'complex trigger' 12.5%, MMP1 ELISA, semi-quantitative score, read-out: Reduction MMP1/THP1
Protocol: A 384-well format ELISA for measurement of MMP1 is developed. Various primary antibodies are tested, as well as various ELISA protocols. The following protocol is developed and validated to measure MMP1 levels in SF supernatant in 384 well plates: white Lumitrac 600 384 well plates (Greiner) are coated with 2 μg/mL anti-MMP1 antibody MAB1346 (Chemicon). The antibody is diluted in buffer 40 (1.21 g Tris base (Sigma), 0.58 g NaCl (Calbiochem) and 5 mL 10% NaN3 (Sigma) in 1 L milliQ water and adjusted to pH 8.5). After overnight incubation at 4° C., plates are washed with PBS (80 g NaCl, 2 g KCl (Sigma), 11.5 g Na2HPO4.7H2O and 2 g KH2PO4 in 10 L milliQ; pH 7.4) and blocked with 100 μL/well Casein buffer (2% Casein (VWR International) in PBS). Next day, casein buffer is removed from ELISA plates and replaced by 50 μL/well EC buffer (4 g casein, 2.13 g Na2HPO4 (Sigma), 2 g bovine albumin (Sigma), 0.69 g NaH2PO4.H2O (Sigma), 0.5 g CHAPS (Roche), 23.3 g NaCl, 4 mL 0.5 M EDTA pH 8 (Invitrogen), 5 mL 10% NaN3 in 1 L milliQ and adjusted to pH 7.0). 0.25 mM DTT (Sigma) is added to the thawed sample plates. After removal of the EC buffer, 20 μL of sample is transferred to the ELISA plates. After overnight incubation at 4° C. plates are washed twice with PBS and once with PBST (PBS with 0.05% Tween-20 (Sigma)) and incubated with 35 μL/well biotinylated anti-MMP1 antibody solution (R&D). This secondary antibody is diluted in buffer C (0.82 g NaH2PO4.H2O, 4.82 g Na2HPO4, 46.6 g NaCl, 20 g bovine albumin and 4 mL 0.5M EDTA pH 8 in 2 L milliQ and adjusted to pH 7.0) at a concentration of 5 μg/mL. After 2 h of incubation at RT, plates are washed as described above and incubated with 50 μL/well streptavidin-HRP conjugate (Biosource). Streptavidin-HRP conjugate is diluted in buffer C at a concentration of 0.25 μg/mL. After 45 min, plates are washed as described above and incubated for 5 min with 50 μL/well BM Chem ELISA Substrate (Roche). Readout is performed on the Luminoscan Ascent Luminometer (Labsystems) with an integration time of 200 msec or with an Envision reader (Perkin Elmer).
The increase of MMP1 expression by SFs upon treatment with cytokines relevant in the field of RA (TNF-α, IL1β and OSM) or a combination thereof is shown in FIG. 2 as white bars. For this experiment, SFs are seeded in 96 well plates, 3,000 cells/well. 24 h later, the medium is changed to M199 medium supplemented with 1% FBS. One day after the medium change, cytokines or combinations thereof are added to the cultures, each cytokine being added to a final concentration of 25 ng/mL. 72 h after cytokine addition, the supernatant is collected and processed in the MMP1 ELISA as described in the protocol given above. In parallel with this experiment, SFs are triggered, using the same protocol, with the supernatant of THP1 cells (2-fold diluted in M199+1% FBS) treated with the same cytokines or combinations of cytokines for 48 h in M199 medium+1% FBS. The induction of the MMP1 expression by SFs triggered with the supernatants of TNF-α-treated THP1 cells is stronger (>4.5 fold induction) as compared to the SFs triggered with recombinant TNF-α alone (3-fold induction) and almost equals the 5-fold induction obtained by a mixture of 3 purified cytokines (TNF-α, IL1βb, OSM). […] As the role of TNF-α in the RA pathogenesis is validated (TNF-α-blockers as Infliximab and Ethanercept show some efficacy in the treatment of RA patients) and the THP-1 cells are representative for monocytes/macrophages present in the joint of RA patients, the TNF-α-based trigger mixture prepared by contacting THP-1 cells with TNF-α will contain factors present in the joints of RA patients and subsequently is relevant to RA. This TNF-α-based complex trigger, further referred to as the ‘complex trigger’, will further be used as basis for the ‘MMP assay’. For preparing a stock of this ‘complex trigger’, THP-1 cells are used between passage 8 and 16. […]

## NC(=O)c1ccc(-c2ccc(Nc3ccc(N4CCOCC4)cc3)c3ncnn23)cc1 [Example 1, 4-[8-(4-Morpholin-4-yl-phenylamino)-[1,2,4]triazolo[1,5-a]pyridin-5-yl]-benzamide]
[1]; Fibroblast, 48 h
  IC50: 0.501 to 1 µM
[2]; Homo sapiens, THP-1, 48 h
  IC50: > 10 µM

## Cc1[nH]ncc1-c1ccc(Nc2ccc(N3CCOCC3)cc2)c2ncnn12 [Example 8, [5-(5-Methyl-1H-pyrazol-4-yl)-[1,2,4]triazolo[1,5-a]pyridin-8-yl]-(4-morpholin-4-yl-phenyl)-amine]
[1]; 48 hrs
  IC50: 1 to 5 µM
[2]; 48 hrs
  IC50: 5 to 10 µM

## CN1CCN(c2ccc(Nc3ccc(-c4ccc(C(N)=O)c(F)c4)n4ncnc34)cc2)CC1 [Example 42, 2-fluoro-4-(8-{[4-(4-methylpiperazin-1-yl)phenyl]amino}[1,2,4]triazolo[1,5-a]pyridin-5-yl)benzamide]
[1]; Fibroblast, 48 h
  IC50: 0.501 to 1 µM
[2]; Homo sapiens, THP-1, 48 h
  IC50: > 10 µM

## Cc1[nH]ncc1-c1ccc(Nc2ccc(N3CCOCC3)cc2)c2ncnn12 [Example 39, 5-(5-methyl-1H-pyrazol-4-yl)-N-(4-morpholin-4-ylphenyl)[1,2,4]triazolo[1,5-a]pyridin-8-amine]
[1]; 48 hrs
  IC50: 5 to 10 µM
[2]; Homo sapiens, THP-1, 48 h
  IC50: > 10 µM

## CN1CCN(c2ccc(Nc3ccc(-c4cn[nH]c4)n4ncnc34)cc2)CC1 [Example 36, N-[4-(4-methylpiperazin-1-yl)phenyl]-5-(1H-pyrazol-4-yl)[1,2,4]triazolo[1,5-a]pyridin-8-amine]
[1]; 48 hrs
  IC50: 1 to 5 µM
[2]; 48 hrs
  IC50: > 10 µM

## CN1CCN(c2ccc(Nc3ccc(-c4cn[nH]c4)n4ncnc34)cc2)CC1 [Example 2, [4-(4-Methyl-piperazin-1-yl)-phenyl]-[5-(1H-pyrazol-4-yl)-[1,2,4]triazolo[1,5-a]pyridin-8-yl]-amine]
[1]; Fibroblast, 48 h
  IC50: 0.501 to 1 µM
[2]; Homo sapiens, THP-1, 48 h
  IC50: 5 to 10 µM

## O=C(NCc1cccnc1)c1ccc(Nc2ccc(-c3cc[nH]c(=O)c3)n3ncnc23)cc1 [Example 41, 4-{[5-(2-oxo-1,2-dihydropyridin-4-yl)[1,2,4]triazolo[1,5-a]pyridin-8-yl]amino}-N-(pyridin-3-ylmethyl)benzamide]
[1]; Fibroblast, 48 h
  IC50: 1 to 5 µM
[2]; Homo sapiens, THP-1, 48 h
  IC50: > 10 µM

## c1nc2c(Nc3ccc(N4CCOCC4)cc3)ccc(-c3cn[nH]c3)n2n1 [Example 7, (4-Morpholin-4-yl-phenyl)-[5-(1H-pyrazol-4-yl)-[1,2,4]triazolo[1,5-a]pyridin-8-yl]-amine]
[1]; Fibroblast, 48 h
  IC50: 0.501 to 1 µM
[2]; Homo sapiens, THP-1, 48 h
  IC50: 5 to 10 µM

## CN1CCN(c2ccc(Nc3ccc(-c4cc[nH]c(=O)c4)n4ncnc34)cc2)CC1 [Example 4, 4-{8-[4-(4-Methyl-piperazin-1-yl)-phenylamino]-[1,2,4]triazolo[1,5-a]pyridin-5-yl}-1H-pyridin-2-one]
[1]; 48 hrs
  IC50: 0.501 to 1 µM
[2]; 48 hrs
  IC50: 1 to 5 µM

## O=C(NCc1cccnc1)c1ccc(Nc2ccc(-c3cc[nH]c(=O)c3)n3ncnc23)cc1 [Example 5, 4-[5-(2-oxo-1,2-dihydro-pyridin-4-yl)-[1,2,4]triazolo[1,5-a]pyridin-8-ylamino]-N-pyridin-3-ylmethyl-benzamide]
[1]; 48 hrs
  IC50: 0.501 to 1 µM
[2]; 48 hrs
  IC50: > 10 µM

## O=C(NCc1cccnc1)c1ccc(Nc2ccc(-c3cn[nH]c3)n3ncnc23)cc1 [Example 3, 4-[5-(1H-Pyrazol-4-yl)-[1,2,4]triazolo[1,5-a]pyridin-8-ylamino]-N-pyridin-3-ylmethyl-benzamide]
[1]; 48 hrs
  IC50: 0.501 to 1 µM
[2]; 48 hrs
  IC50: 1 to 5 µM

## O=C(NCc1cccnc1)c1ccc(Nc2ccc(-c3cn[nH]c3)n3ncnc23)cc1 [Example 37, 4-{[5-(1H-pyrazol-4-yl)[1,2,4]triazolo[1,5-a]pyridin-8-yl]amino}-N-(pyridin-3-ylmethyl)benzamide]
[1]; Fibroblast, 48 h
  IC50: < 0.5 µM
[2]; Homo sapiens, THP-1, 48 h
  IC50: 1 to 5 µM

## CN1CCN(c2ccc(Nc3ccc(-c4cc[nH]c(=O)c4)n4ncnc34)cc2)CC1 [Example 40, 4-(8-{[4-(4-methylpiperazin-1-yl)phenyl]amino}[1,2,4]triazolo[1,5-a]pyridin-5-yl)pyridin-2(1H)-one]
[1]; Fibroblast, 48 h
  IC50: 1 to 5 µM
[2]; Homo sapiens, THP-1, 48 h
  IC50: 1 to 5 µM
